Converted amounts (≈) assume the structure as drawn.
Tests used:
[1] = physchem; conditions: octan-1-ol/water, pH 7.4, LogD7.4
[2] = physchem; conditions: pH 7.4 buffer

Structure (SMILES)	logD [1]	solubility thermodynamic [2] [µM]
CCn1c2ccccc2c2cc(NC(=O)N3CCOCC3)ccc21	3.2	2.9 (≈ 0.938 µg/mL)
Nc1ncc(-c2cnn(C3CCN(C(=O)CO)CC3)c2)cc1-c1nc2ccccc2o1	3.2	2 (≈ 0.837 µg/mL)
CS(=O)(=O)c1cccc(Nc2nccc(Nc3cccc4c3OCC4)n2)c1	3	44.7 (≈ 17.1 µg/mL)
CS(=O)(=O)c1cccc(Nc2nccc(N(CC#N)c3c(Cl)ccc4c3OCO4)n2)c1	3.16	1.3 (≈ 0.595 µg/mL)
c1cc(Nc2ccnc(Nc3cc(N4CCOCC4)cc(N4CCOCC4)c3)n2)c2cn[nH]c2c1	3.05	2.5 (≈ 1.18 µg/mL)
CN(c1ccnc(Nc2cccc(S(C)(=O)=O)c2)n1)c1cccc2[nH]ncc12	3.21	13.5 (≈ 5.33 µg/mL)
CSCc1cc(N2CCOCC2)nc(-c2ccccc2)n1	3.26	55 (≈ 16.6 µg/mL)
O=C(c1scc2c1CCCC2)N1CCCCC1	3.16	871 (≈ 217 µg/mL)
FC(F)(F)c1nnc2ccc(N3CCCCCC3)nn12	3.29	132 (≈ 37.6 µg/mL)
O=C(c1ccc(F)cc1)C1CCN(C(=O)NCc2ccccc2)CC1	3.15	10 (≈ 3.4 µg/mL)
O=C(/C=C/Sc1nc[nH]n1)c1ccc(Cl)cc1	3.1	35.5 (≈ 9.43 µg/mL)
O=C(Cn1cnc2ccccc21)c1ccc(Br)cc1	3.22	129 (≈ 40.6 µg/mL)
COc1ccc(C)c(N(C)c2ccnc(Nc3cc(N4CCOCC4)cc(N4CCOCC4)c3)n2)c1	3.18	11.5 (≈ 5.64 µg/mL)
COc1cc(CO)cc(N(C)c2ccnc(Nc3cc(N4CCOCC4)cc(N4CCOCC4)c3)n2)c1	3	195 (≈ 98.8 µg/mL)
Cc1ccc(CO)cc1N(C)c1ccnc(Nc2cc(CN3CCOCC3)cc(N3CCOCC3)c2)n1	3	372 (≈ 187 µg/mL)
CC(C)OC(=O)N1CCC(Oc2ncnc3c2cnn3-c2ccc(S(C)(=O)=O)cc2F)CC1	3	2.1 (≈ 1 µg/mL)
COc1cc(N2CCN(CCO)CC2)ccc1Nc1ncc(Cl)c(-c2cnc3ccccn23)n1	3.2	66.1 (≈ 31.7 µg/mL)
COc1cc(N2CCN(C(C)=O)CC2)ccc1Nc1ncc(OC)c(-c2cnc3ccccn23)n1	3.2	1.3 (≈ 0.616 µg/mL)
COc1cc(N2CCN(C(C)=O)CC2)ccc1Nc1ncc(Cl)c(-c2cnc3c(CO)cccn23)n1	3.1	0.5 (≈ 0.254 µg/mL)
COc1cc(N2CCN(C(C)=O)CC2)ccc1Nc1ncc(Cl)c(-c2cnc3cc(CO)ccn23)n1	3.1	22.9 (≈ 11.6 µg/mL)
CN(C(=O)C1CCC1)C1CCN(CCC(c2ccccc2)c2ccccc2)CC1	3.2	282 (≈ 110 µg/mL)
O=C(Nc1cccc(O)c1)c1ccc(OCCCN2CCCC2)cc1OCc1ccccc1	3.07	6.6 (≈ 2.95 µg/mL)

Structure (SMILES)	logD [1]	solubility thermodynamic [2] [µM]
CCOC(=O)c1ccc(OCCC2CN(c3ccc(C)nn3)C2)cc1	3.22	347 (≈ 118 µg/mL)
CCOC(=O)c1ccc(OCC2CN(c3ccc(C)nn3)C2)cc1	3.1	141 (≈ 46.3 µg/mL)
COc1cc2ncnc(Nc3cc(NC(=O)c4ccnc(N5CCOCC5)c4)ccc3C)c2cc1OCCN1CCOCC1	3.19	66.1 (≈ 39.6 µg/mL)
Cc1ccc(NC(=O)c2ccnc(N3CCOCC3)c2)cc1Nc1ccnc(Cl)n1	3.1	15.1 (≈ 6.42 µg/mL)
Cc1ccc(NC(=O)c2cccc(N3CCOCC3)c2)cc1NC(=O)c1ccc(OCc2ccncc2)cc1	3.2	0.5 (≈ 0.261 µg/mL)
O=C(NC1CCCCC1)c1cccnc1Sc1ccccc1	3.01	22.9 (≈ 7.15 µg/mL)
COc1cc2c(Nc3ccc(Br)cc3F)ncnc2cc1OC[C@@H]1CCCN(C)C1	3.05	170 (≈ 80.7 µg/mL)
CCOc1cc2nccc(Oc3cnc(CC(=O)Nc4n[nH]c(CC)c4C)c(OC)c3)c2cc1OC	3.29	2.2 (≈ 1.08 µg/mL)
COc1ccc(NC(=O)c2nnc(Nc3ccccc3F)o2)cn1	3.2	3.3 (≈ 1.09 µg/mL)
O=C(Nc1ccc(Oc2cccnc2)nc1)c1nnc(Nc2ccccc2F)o1	3.1	77.6 (≈ 30.4 µg/mL)
O=C(Nc1ccc(N2CCOCC2)nc1)c1nnc(Nc2cccc(OCc3ccccn3)c2)o1	3.1	6.3 (≈ 2.98 µg/mL)
O=C(Nc1ccc(N2CCOCC2)cc1)c1nnc(NC(=O)C2(c3ccc(Cl)cc3)CCC2)o1	3.2	66.1 (≈ 31.9 µg/mL)
O=C(Nc1ccc(N2CCOCC2)cc1)c1nnc(Nc2ccccc2)o1	3.15	1.7 (≈ 0.621 µg/mL)
COc1cc2ncnc(Nc3cccc(Cl)c3F)c2cc1CN1C[C@H](OC)C[C@@H]1C(N)=O	3.09	436 (≈ 201 µg/mL)
COCCCc1cc(Nc2nc(NCc3cc(C)no3)ncc2Br)[nH]n1	3.07	120 (≈ 50.8 µg/mL)
COc1cc(CCc2cc(Nc3ccnc(NCc4cc(C)no4)n3)n[nH]2)cc(OC)c1	3.1	0.6 (≈ 0.261 µg/mL)
O=C1COC2(CCN(S(=O)(=O)c3ccc(-c4ccc5cccnc5c4)cc3)CC2)CN1C1CC1	3.24	1.9 (≈ 0.907 µg/mL)
CCCSc1nc(NC)ccc1C(=O)N[C@H]1C2CC3CC1C[C@](O)(C3)C2	3.27	46.8 (≈ 17.6 µg/mL)
CCCSc1nc(N2CCOCC2)ccc1C(=O)N[C@H]1C2CC3CC1C[C@](O)(C3)C2	3.2	479 (≈ 207 µg/mL)
C[C@H](NC1=NC(=O)[C@@](C)(C(F)(F)F)S1)c1ccccc1F	3.1	219 (≈ 70.1 µg/mL)
CC[C@@H]1COCCN1c1cc(C2(S(C)(=O)=O)CC2)nc(-c2cccc3[nH]ccc23)n1	3	79.4 (≈ 33.9 µg/mL)
CN1CCN([C@H]2C[C@@H](c3nc(-c4ccc5ccc(-c6ccccc6)nc5c4)c4c(N)nccn43)C2)CC1	3.2	204 (≈ 100 µg/mL)

Structure (SMILES)	logD [1]	solubility thermodynamic [2] [µM]
C[C@H](CN(C)C(=O)CO)Oc1cccc2ncnc(Nc3ccc(OCc4ccccn4)c(Cl)c3)c12	3.22	12.6 (≈ 6.4 µg/mL)
COc1cc(Nc2cc(Nc3c(Cl)ccc4c3OCO4)ncn2)cc(OC)c1OC	3.07	2.5 (≈ 1.08 µg/mL)
CCn1c2ccccc2c2cc(NC(=O)CN(C)C)ccc21	3.2	219 (≈ 64.6 µg/mL)
O=c1cc(-c2ccc(O)cc2)oc2cc(O)ccc12	3.2	2.3 (≈ 0.585 µg/mL)
CCN(CC)C(=O)c1ccc2[nH]c(-c3cc(C)cc(C)c3)c(CCNCCCCc3ccncc3)c2c1	3.3	871 (≈ 433 µg/mL)
COc1cc2ncnc(NCc3ccccc3)c2cc1OC	3.29	38.9 (≈ 11.5 µg/mL)
CN(C)C(=O)[C@H](Cc1ccccc1)NC(=O)c1cc2sccc2[nH]1	3.1	17 (≈ 5.8 µg/mL)
COc1cc(OC2CCN(C)CC2)c2c(Nc3cccc4c3OCO4)ncnc2c1	3.02	91.2 (≈ 37.3 µg/mL)
C[C@H](NC1=NC(=O)[C@](C)(C(F)(F)F)S1)c1ccccc1F	3.1	87.1 (≈ 27.9 µg/mL)
CC(=O)N1CCN(CCOc2cc(OC(C)C)c3c(Nc4c(F)ccc5c4OCO5)ncnc3c2)CC1	3.06	27.5 (≈ 14.1 µg/mL)
COc1cc(Nc2ncnc(Nc3c(Cl)ccc4c3OCO4)n2)cc(OC)c1OC	3.01	6.2 (≈ 2.68 µg/mL)
Cn1c(C#N)ccc1-c1cc(F)c2c(c1)C(C)(C)C(=O)N2	3.21	5.4 (≈ 1.53 µg/mL)
CN1CCC(Oc2cccc3ncnc(Nc4ccc(OCc5cnccn5)c(Cl)c4)c23)CC1	3.21	12.3 (≈ 5.87 µg/mL)
CC(C)C[C@H](N[C@@H](c1ccc(-c2ccc(S(C)(=O)=O)cc2)cc1)C(F)(F)F)C(=O)NCC#N	3.24	4 (≈ 1.93 µg/mL)
CC(=O)OCCn1c(Sc2nc3cccc(Cl)c3s2)nc2c(N)ncnc21	3.16	4 (≈ 1.68 µg/mL)
C[C@H](NC1=NC(=O)C(C)(C(F)(F)F)S1)c1ccccc1F (stereo not given in full)	3.1	339 (≈ 109 µg/mL)
Clc1ccc2c(c1Nc1ccnc(Nc3cc(N4CCOCC4)cc(N4CCOCC4)c3)n1)OCO2	3.25	30.9 (≈ 15.8 µg/mL)
CNC(=O)c1cc(-c2ccccc2)sc1NC(N)=O	3.19	12 (≈ 3.3 µg/mL)
O=C(Nc1ncc(F)s1)[C@H](CC1CCOCC1)c1ccc(S(=O)(=O)C2CC2)cc1	3.19	214 (≈ 93.8 µg/mL)
Cc1cccc(C[C@H](NC(=O)c2cc(C(C)(C)C)nn2C)C(=O)NCC#N)c1	3.1	63.1 (≈ 24.1 µg/mL)
COc1cc(Nc2cc(Oc3ccc(C)nc3)ccn2)cc(OC)c1OC	3.21	31.6 (≈ 11.6 µg/mL)

Source: ChEMBL document CHEMBL3301361, “Experimental in vitro DMPK and physicochemical data on a set of publicly disclosed compounds”
